Source: US8309718B2, “4-pyrazolyl-N-arylpyrimidin-2-amines and 4-pyrazolyl-N-heteroarylpyrimidin-2-amines as janus kinase inhibitors” (Incyte Corporation, priority 2007, dated 2012)

Biological target: T1, human JAK2 (Homo sapiens, UniProt O60674)
T1 construct: JAK2 (a.a. 828-1132); His tag (N); made in house; host or cells: insect cells (baculovirus)
Assay: In vitro JAK kinase assay (HTRF, phosphorylation of biotinylated peptide)
Format: biochemical
Conditions: catalytic domain a.a. 828-1132, 30 μM ATP, 500 nM peptide, room temperature 1 hr; read-out: JAK-2 IC50
Summary of the method: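 IC50 from HTRF detection (Eu-Py20 antibody, SA-APC) of biotinylated-peptide phosphorylation (500 nM), run 1 h at RT. Enzyme: N-His human JAK2 kinase domain a.a. 828-1132 from insect cells; ATP 30 μM; buffer 50 mM Tris pH 7.8 with NaCl, DTT, BSA.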

T1 sequence (O60674 828-1132): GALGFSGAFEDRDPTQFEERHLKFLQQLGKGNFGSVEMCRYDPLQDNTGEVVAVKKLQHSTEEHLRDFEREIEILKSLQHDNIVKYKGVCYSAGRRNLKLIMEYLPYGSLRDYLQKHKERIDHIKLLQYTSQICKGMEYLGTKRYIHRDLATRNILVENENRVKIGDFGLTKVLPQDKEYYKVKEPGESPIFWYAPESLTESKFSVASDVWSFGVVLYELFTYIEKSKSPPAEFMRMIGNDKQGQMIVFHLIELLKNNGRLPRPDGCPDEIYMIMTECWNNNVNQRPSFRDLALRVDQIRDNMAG

IC50, < 100 nM:
N#CCC(C1CCN(C(=O)c2ccccc2)CC1)n1cc(-c2ccnc(Nc3ccc(N4CCOCC4)cc3)n2)cn1 (racemic) [Example 27, 3-(1-benzoylpiperidin-4-yl)-3-(4-(2-(4-morpholinophenylamino)pyrimidin-4-yl)-1H-pyrazol-1-yl)propanenitrile]
Cc1cnc(Nc2ccc(N3CCOCC3)cc2)nc1-c1cnn(C(CC#N)C2CCCC2)c1 (racemic) [Example 72, 3-cyclopentyl-3-(4-(5-methyl-2-(4-morpholinophenylamino)pyrimidin-4-yl)-1H-pyrazol-1-yl)propanenitrile]
N#CCC(C1CCCC1)n1cc(-c2ccnc(Nc3ccc(C(=O)N4CCC(Oc5ccccn5)C4)cc3)n2)cn1 (mixture of isomers) [Example 233, 3-cyclopentyl-3-(4-(2-(4-(3-(pyridin-2-yloxy)pyrrolidine-1-carbonyl)phenylamino)pyrimidin-4-yl)-1H-pyrazol-1-yl)propanenitrile]
Cc1cnc(Nc2ccc(-n3cccn3)cc2)nc1-c1cnn(C(CC#N)C2CCCC2)c1 (racemic) [Example 71, 3-(4-(2-(4-(1H-pyrazol-1-yl)phenylamino)-5-methylpyrimidin-4-yl)-1H-pyrazol-1-yl)-3-cyclopentylpropanenitrile]
CC(=O)Nc1ccc(Nc2nccc(-c3cnn(C(CC#N)CC4CCN(C(=O)c5ccc(F)cc5F)CC4)c3)n2)cc1 (racemic) [Example 60, N-(4-(4-(1-(1-cyano-3-(1-(2,4-difluorobenzoyl)piperidin-4-yl)propan-2-yl)-1H-pyrazol-4-yl)pyrimidin-2-ylamino)phenyl)acetamide]
Cc1cc(OC2CCC(CC#N)(n3cc(-c4ccnc(Nc5ccc(N6CCOCC6)cc5)n4)cn3)CC2)no1 (single isomer, unassigned) [Example 212, 2-(4-(5-methylisoxazol-3-yloxy)-1-(4-(2-(4-morpholinophenylamino)pyrimidin-4-yl)-1H-pyrazol-1-yl)cyclohexyl)acetonitrile]
COc1cnc(Nc2cccc(-c3ccnc(C)n3)c2)nc1-c1cnn(C(CC#N)C2CCCC2)c1 (racemic) [Example 134, 3-cyclopentyl-3-(4-(5-methoxy-2-(3-(2-methylpyrimidin-4-yl)phenylamino)pyrimidin-4-yl)-1H-pyrazol-1-yl)propanenitrile]
Cc1cc(OC2CCC(CC#N)(n3cc(-c4ccnc(Nc5cccc(-c6cnco6)c5)n4)cn3)CC2)no1 (single isomer, unassigned) [Example 247, 2-(4-(5-methylisoxazol-3-yloxy)-1-(4-(2-(3-(oxazol-5-yl)phenylamino)pyrimidin-4-yl)-1H-pyrazol-1-yl)cyclohexyl)acetonitrile]
CCN(CC)c1ccc(Nc2ncc(C)c(-c3cnn(C(CC#N)C4CCCC4)c3)n2)cc1 (racemic) [Example 79, 3-cyclopentyl-3-(4-(2-(4-(diethylamino)phenylamino)-5-methylpyrimidin-4-yl)-1H-pyrazol-1-yl)propanenitrile]
CN1CCN(CC(=O)Nc2cccc(Nc3nccc(-c4cnn(C(CC#N)C5CCCC5)c4)n3)c2)CC1 (racemic) [Example 236, N-(3-(4-(1-(2-cyano-1-cyclopentylethyl)-1H-pyrazol-4-yl)pyrimidin-2-ylamino)phenyl)-2-(4-methylpiperazin-1-yl)acetamide]
N#CCC(C1CCCC1)n1cc(-c2ccnc(Nc3cccc(C(=O)N4CCC(Cc5cccnc5)CC4)c3)n2)cn1 (racemic) [Example 144, 3-cyclopentyl-3-(4-(2-(3-(4-(pyridin-3-ylmethyl)piperidine-1-carbonyl)phenylamino)pyrimidin-4-yl)-1H-pyrazol-1-yl)propanenitrile]
N#CCC(C1CCCC1)n1cc(-c2ccnc(Nc3cccc(NC(=O)CN4CCOCC4)c3)n2)cn1 (racemic) [Example 242, N-(3-(4-(1-(2-cyano-1-cyclopentylethyl)-1H-pyrazol-4-yl)pyrimidin-2-ylamino)phenyl)-2-morpholinoacetamide]
N#CCC(C1CC1)n1cc(-c2ccnc(Nc3ccc(C(=O)N4CCC(O)CC4)cc3)n2)cn1 (racemic) [Example 251, 3-cyclopropyl-3-(4-(2-(4-(4-hydroxypiperidine-1-carbonyl)phenylamino)pyrimidin-4-yl)-1H-pyrazol-1-yl)propanenitrile]
CCS(=O)(=O)Nc1cccc(Nc2nccc(-c3cnn(C(CC#N)C4CCCC4)c3)n2)c1 (racemic) [Example 114, N-(3-(4-(1-(2-cyano-1-cyclopentylethyl)-1H-pyrazol-4-yl)pyrimidin-2-ylamino)phenyl)ethanesulfonamide]
N#CCC(C1CCCC1)n1cc(-c2ccnc(Nc3cccc(N)c3)n2)cn1 (racemic) [Example 108, 3-(4-(2-(3-aminophenylamino)pyrimidin-4-yl)-1H-pyrazol-1-yl)-3-cyclopentylpropanenitrile]
N#CCC(C1CCNCC1)n1cc(-c2ccnc(Nc3ccc(N4CCOCC4)cc3)n2)cn1 (racemic) [Example 22, 3-(4-(2-(4-morpholinophenylamino)pyrimidin-4-yl)-1H-pyrazol-1-yl)-3-(piperidin-4-yl)propanenitrile]
Cc1cc(OC2CCC(CC#N)(n3cc(-c4ccnc(Nc5ccc(-n6cccn6)cc5)n4)cn3)CC2)no1 (single isomer, unassigned) [Example 246, 2-(1-(4-(2-(4-(1H-pyrazol-1-yl)phenylamino)pyrimidin-4-yl)-1H-pyrazol-1-yl)-4-(5-methylisoxazol-3-yloxy)cyclohexyl)acetonitrile]
CNC(=O)c1cccc(Nc2nccc(-c3cnn(C(CC#N)C4CCCC4)c3)n2)c1 (racemic) [Example 109, 3-(4-(1-(2-cyano-1-cyclopentylethyl)-1H-pyrazol-4-yl)pyrimidin-2-ylamino)-N-methylbenzamide]
N#CCC1(n2cc(-c3ccnc(Nc4ccc(N5CCOC5=O)cc4)n3)cn2)CC(C#N)C1 (single isomer, unassigned) [Example 339, 3-(cyanomethyl)-3-[4-(2-{[4-(2-oxo-1,3-oxazolidin-3-yl)phenyl]amino}pyrimidin-4-yl)-1H-pyrazol-1-yl]cyclobutanecarbonitrile]
CCS(=O)(=O)N1CC(CC#N)(n2cc(-c3ccnc(Nc4ccc(C(=O)N5CC[C@H](OC)C5)cc4)n3)cn2)C1 [Example 277, (S)-2-(1-(ethylsulfonyl)-3-(4-(2-(4-(3-methoxypyrrolidine-1-carbonyl)phenylamino)pyrimidin-4-yl)-1H-pyrazol-1-yl)azetidin-3-yl)acetonitrile]
N#CCC(C1CCCC1)n1cc(-c2ccnc(Nc3cccc(C(=O)NCC4CCOCC4)c3)n2)cn1 (racemic) [Example 153, 3-(4-(1-(2-cyano-1-cyclopentylethyl)-1H-pyrazol-4-yl)pyrimidin-2-ylamino)-N-((tetrahydro-2H-pyran-4-yl)methyl)benzamide]
Cc1cnc(Nc2ccc(N3CCOCC3)cc2)nc1-c1cnn(C(CC#N)CC2CCN(S(=O)(=O)c3ccn(C)n3)CC2)c1 (racemic) [Example 61, 4-(1-(1-methyl-1H-pyrazol-3-ylsulfonyl)piperidin-4-yl)-3-(4-(5-methyl-2-(4-morpholinophenylamino)pyrimidin-4-yl)-1H-pyrazol-1-yl)butanenitrile]
